The text below walks through data of PubChem BioAssay AID330 (DTP/NCI, 2004).

Molecules are shown by their SMILES. Several values for one entry are separate records, joined by “and”; a condition that tells them apart may be missing. Equal values may be shown once. Inconclusive results and toxic doses are left out.

This experiment deals with P388 leukemia ip, CD2F1 mice, survival T/C. Kind of experiment: NCI In Vivo Anticancer Drug Screen. Data for tumor model P388 Leukemia (intraperitoneal) in CD2F1 (CDF1) mice. Conditions: endpoint: median survival time, higher = longer survival. In short, it runs like this:
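Mice carrying the transplanted tumor received test compound or vehicle. Survival was recorded in each group, and the value is the treated-group measurement divided by that of the vehicle-treated control group.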

Setting [1] is: dose: 50.0 mg/kg/injection, schedule: Q01DX009 (ip), vehicle: saline with Tween-80.
Setting [2] is: dose: 50.0 mg/kg/injection, schedule: Q01DX009 (ip), vehicle: saline.
Setting [3] is: dose: 100.0 mg/kg/injection, schedule: Q01DX009 (ip), vehicle: saline.
[4] abbreviates: dose: 12.5 mg/kg/injection, schedule: Q01DX005 (ip), vehicle: saline with Tween-80.
Where [5] appears, read: dose: 25.0 mg/kg/injection, schedule: Q01DX005 (ip), vehicle: saline with Tween-80.
The mark [6] stands for this setting: dose: 100.0 mg/kg/injection, schedule: Q01DX005 (ip), vehicle: saline with Tween-80.
[7] abbreviates: dose: 50.0 mg/kg/injection, schedule: Q01DX005 (ip), vehicle: Klucel (hydroxypropylcellulose) (HPC).
The mark [8] stands for this setting: dose: 100.0 mg/kg/injection, schedule: Q01DX005 (ip), vehicle: Klucel (hydroxypropylcellulose) (HPC).
The mark [9] stands for this setting: dose: 50.0 mg/kg/injection, schedule: Q01DX005 (ip), vehicle: saline with Tween-80.
The mark [10] stands for this setting: dose: 100.0 mg/kg/injection, schedule: Q04DX002 (ip), vehicle: saline with Tween-80.
The mark [11] stands for this setting: dose: 200.0 mg/kg/injection, schedule: Q04DX002 (ip), vehicle: saline with Tween-80.
[12] abbreviates: dose: 200.0 mg/kg/injection, schedule: Q01DX009 (ip), vehicle: saline.

For `CC(CCN1CCOCC1)Nc1ccnc2cc(Cl)ccc12` (stereo unspecified), the T/C by setting is: (dose: 12.5 mg/kg/injection, schedule: Q01DX005 (ip), vehicle: saline) 98 % of control; (dose: 25.0 mg/kg/injection, schedule: Q01DX005 (ip), vehicle: saline) 102 % of control; (dose: 50.0 mg/kg/injection, schedule: Q01DX005 (ip), vehicle: saline) 107 % of control and 95 % of control.
On to `Nc1ccc2c(n1)NCC/C2=N\Nc1ccc(F)cc1`, for which the T/C was 105 % of control under setting [1] and 105 % of control (dose: 100.0 mg/kg/injection, schedule: Q01DX009 (ip), vehicle: saline with Tween-80).
As for `C[n+]1cccc(C2=CCCC2)c1`, the T/C is 109 % of control (dose: 3.13 mg/kg/injection, schedule: Q01DX009 (ip), vehicle: saline); 100 % of control (dose: 6.25 mg/kg/injection, schedule: Q01DX009 (ip), vehicle: saline); 100 % of control (dose: 12.5 mg/kg/injection, schedule: Q01DX009 (ip), vehicle: saline); 102 % of control (dose: 12.5 mg/kg/injection, schedule: Q04DX003 (ip), vehicle: water); 100 % of control (dose: 25.0 mg/kg/injection, schedule: Q01DX009 (ip), vehicle: saline); 93 % of control (dose: 25.0 mg/kg/injection, schedule: Q04DX003 (ip), vehicle: saline with Tween-80). Besides, the T/C (dose: 25.0 mg/kg/injection, schedule: Q04DX003 (ip), vehicle: water) is 97 % of control; the T/C (dose: 50.0 mg/kg/injection, schedule: Q04DX003 (ip), vehicle: saline with Tween-80) is 92 % of control; the T/C (dose: 100.0 mg/kg/injection, schedule: Q04DX003 (ip), vehicle: saline with Tween-80) was 97 % of control; the T/C (dose: 200.0 mg/kg/injection, schedule: Q04DX003 (ip), vehicle: saline with Tween-80) is 105 % of control.
On to `CC(C)(C)c1cc(C(C)(C)C)c2oc(C(=O)O)cc(=O)c2c1`, for which the T/C under setting [2] was 95 % of control and the T/C under setting [3] is 97 % of control.
With `CCCCNP1(NCCCC)=NP(NCCCC)(NCCCC)=NP(NCCCC)(NCCCC)=NP(NCCCC)(NCCCC)=N1`, the T/C was 106 % of control under setting [4], 116 % of control under setting [5] and 88 % of control under setting [6].
As for `CS(=O)(=O)C(CCC(=O)c1cccs1)C(=O)c1ccccc1` (stereo unspecified), the T/C by setting is: under setting [7], 89 % of control; under setting [8], 91 % of control; (dose: 200.0 mg/kg/injection, schedule: Q01DX005 (ip), vehicle: Klucel (hydroxypropylcellulose) (HPC)) 89 % of control.
`COc1ccc(C2CC(CO)ON2c2ccccc2)cc1` (stereo unspecified): the T/C runs as follows: (dose: 60.0 mg/kg/injection, schedule: Q01DX005 (ip), vehicle: saline with Tween-80) 98 % of control; (dose: 120.0 mg/kg/injection, schedule: Q01DX005 (ip), vehicle: saline with Tween-80) 98 % of control; (dose: 240.0 mg/kg/injection, schedule: Q01DX005 (ip), vehicle: saline with Tween-80) 99 % of control.
In the case of `Clc1ccc2c(NCCCCCCNc3ccnc4cc(Cl)ccc34)ccnc2c1`, the T/C reads like this: (dose: 6.25 mg/kg/injection, schedule: Q01DX005 (ip), vehicle: saline with Tween-80) 97 % of control; under setting [4], 90 % of control; under setting [5], 99 % of control; under setting [9], 100 % of control; under setting [6], 109 % of control.
As for `N#CC(c1ccccc1)c1nccc2ccccc12` (stereo unspecified), the T/C runs as follows: under setting [10], 99 % of control; under setting [11], 100 % of control.
As for `Cc1ccccc1N1C(=O)CSC1=S`, the T/C is 105 % of control (dose: 12.5 mg/kg/injection, schedule: Q01DX009 (ip), vehicle: saline with Tween-80); 95 % of control (dose: 25.0 mg/kg/injection, schedule: Q01DX009 (ip), vehicle: saline with Tween-80); 105 % of control under setting [1].
As for `c1ccc(N[n+]2ccc3ccccc3c2)cc1`, the T/C (dose: 6.25 mg/kg/injection, schedule: Q01DX009 (ip), vehicle: distilled water + alcohol) was 104 % of control; the T/C (dose: 12.5 mg/kg/injection, schedule: Q01DX009 (ip), vehicle: distilled water + alcohol) was 104 % of control; the T/C (dose: 25.0 mg/kg/injection, schedule: Q01DX009 (ip), vehicle: distilled water + alcohol) was 102 % of control.
On to `COC(=O)N1CCc2c([nH]oc2=O)C1`, for which the T/C is, setting by setting: under setting [2], 90 % of control; under setting [3], 88 % of control; under setting [12], 89 % of control.
As for `CCOC(=O)c1[nH]c(=O)c2ccccc2c1O`, the T/C by setting is: (dose: 12.5 mg/kg/injection, schedule: Q01DX009 (ip), vehicle: suspension in saline) 91 % of control; (dose: 25.0 mg/kg/injection, schedule: Q01DX009 (ip), vehicle: suspension in saline) 92 % of control; (dose: 50.0 mg/kg/injection, schedule: Q01DX009 (ip), vehicle: suspension in saline) 99 % of control; (dose: 100.0 mg/kg/injection, schedule: Q01DX009 (ip), vehicle: suspension in saline) 98 % of control.
For the compound `CCN(CC)CCCC(C)NC(=S)N/N=C(\C)c1ccccn1` (stereo unspecified), the T/C is, setting by setting: under setting [2], 110 % of control and 113 % of control; under setting [12], 157 % of control.
As for `CCN(CC)CC.CCOc1ccc(NC(=O)N=C=[N-])cc1.[CH-]1CCCCC1.[CH-]1CCCCC1.[CH-]1CCCCC1.[Cl-].[Sn+4]`, the T/C by setting is: (dose: 6.0 mg/kg/injection, schedule: Q01DX005 (ip), vehicle: Klucel (hydroxypropylcellulose) (HPC)) 101 % of control; (dose: 12.0 mg/kg/injection, schedule: Q01DX005 (ip), vehicle: Klucel (hydroxypropylcellulose) (HPC)) 89 % of control.
As to `C=CC(=O)OC1CC(O)C2(C)CC3C(=C)C(=O)OC3CC(C)C12` (stereo unspecified), the T/C is, setting by setting: under setting [10], 107 % of control; under setting [11], 110 % of control; (dose: 400.0 mg/kg/injection, schedule: Q04DX002 (ip), vehicle: saline with Tween-80) 109 % of control.
Consider `CC12CCC3c4ccc(O)cc4CCC3C1C/C(=C\C(=O)O)C2O` (stereo unspecified), for which the T/C is, setting by setting: (dose: 25.0 mg/kg/injection, schedule: Q04DX003 (ip), vehicle: Klucel (hydroxypropylcellulose) (HPC)) 116 % of control; (dose: 50.0 mg/kg/injection, schedule: Q04DX003 (ip), vehicle: Klucel (hydroxypropylcellulose) (HPC)) 100 % of control and 104 % of control and 110 % of control; (dose: 100.0 mg/kg/injection, schedule: Q04DX003 (ip), vehicle: Klucel (hydroxypropylcellulose) (HPC)) 100 % of control (2×) and 111 % of control; (dose: 200.0 mg/kg/injection, schedule: Q04DX003 (ip), vehicle: Klucel (hydroxypropylcellulose) (HPC)) 99 % of control and 100 % of control and 121 % of control.
On to `C1CCCCC2=NCCC(CCCC1)C2` (stereo unspecified), for which the T/C by setting is: under setting [7], 103 % of control; under setting [8], 107 % of control.
`N#CC(c1ccccc1)c1cnccn1` (stereo unspecified): the T/C is 102 % of control under setting [5] and 100 % of control under setting [9].
`O=[N+]([O-])c1ccc(/C=C/S(=O)(=O)Cc2ccccc2)cc1`: the T/C reads like this: under setting [9], 105 % of control; under setting [6], 100 % of control; (dose: 200.0 mg/kg/injection, schedule: Q01DX005 (ip), vehicle: saline with Tween-80) 96 % of control.
For `COC(=O)C1(OC(C)=O)C(=O)NC2=C1C(=O)c1ccccc1C2=O` (stereo unspecified), the T/C under setting [4] is 102 % of control; the T/C under setting [5] is 104 % of control; the T/C under setting [9] is 110 % of control and 113 % of control.
`CN(C)C1C(=O)C(C(=O)NCN2CCOB(c3ccccc3)OCC2)=C(O)C2(O)C(O)=C3C(=O)C4C(O)=CC=CC4C(C)(O)C3CC12` (stereo unspecified): the T/C reads like this: (dose: 12.5 mg/kg/injection, schedule: Q04DX002 (ip), vehicle: saline) 101 % of control; (dose: 25.0 mg/kg/injection, schedule: Q04DX002 (ip), vehicle: saline) 105 % of control; (dose: 50.0 mg/kg/injection, schedule: Q04DX002 (ip), vehicle: saline) 108 % of control.
`N#CC1=C(C#N)CC2C(C1)OC1CC(C#N)=C(C#N)CC12` (stereo unspecified): the T/C runs as follows: under setting [2], 100 % of control; under setting [3], 101 % of control; under setting [12], 100 % of control.
On to `COC1CC(O)(CCNc2ccc([N+](=O)[O-])cc2[N+](=O)[O-])C(O)C(CO)O1` (stereo unspecified), for which the T/C runs as follows: (dose: 20.0 mg/kg/injection, schedule: Q01DX001 (ip), vehicle: Klucel (hydroxypropylcellulose) (HPC)) 100 % of control; (dose: 40.0 mg/kg/injection, schedule: Q01DX001 (ip), vehicle: Klucel (hydroxypropylcellulose) (HPC)) 93 % of control; (dose: 80.0 mg/kg/injection, schedule: Q01DX001 (ip), vehicle: Klucel (hydroxypropylcellulose) (HPC)) 94 % of control.
